Reference: article PMC8778670, “Identification of an Orally Bioavailable, Brain-Penetrant Compound with Selectivity for the Cannabinoid Type 2 Receptor” (Molecules, 2022)
“And” between values parts separate entries of the source, which are not always exact repeats. Equal entries are not always repeated. Where two headings read alike, the source gives them in different places.

Assays:
[1] = PK evaluation in CD-1 mice (plasma, brain, kidney, liver; i.v. and oral); format: in vivo; conditions: for bioavailability: oral vs intravenous 5 mg/kg
Method: The primary stock solutions of 4k and phenacetin (internal standard, IS) were prepared in methanol at a concentration of 1.0 mg/mL. Working solutions of calibration standards and quality control (QC) samples were prepared by dilution with methanol and stored at −20 °C. A working stock of the IS solution (20 ng/mL) was prepared in methanol and stored at −20 °C.
Chromatography was performed on an Acquity^TM UPLC system (Waters Corp, Milford, MA, USA) with an autosampler temperature at 10 °C. Waters Acquity UPLC® HSS C18 column (3.0 × 50 mm, 1.8 µm particle size) was used for chromatographic separation with linear gradient elution consisting of (A) 90% acetonitrile and (B) 10% 0.2% formic acid in Milli-Q water as mobile phases. The flow rate was set at 0.30 mL/min, and the injection volume was 2 µL.
An Acquity Tandem Quadrupole Mass Detector (Xevo TQ-S; Waters Corp, Milford, MA, USA) in positive electrospray ionization mode was used for mass spectrometric detection. For collision-induced dissociation, argon was used as collision gas. The cone voltage and collision energy were set at 60 V and 34 V for 4k and 46 V and 26 V for the IS, respectively. Quantification was performed using the monitoring of multiple reaction monitoring (MRM) of following transitions: m/z 409.0/220.9 for 4k and m/z 180.0/92.7 for IS. Retention times of 4k and IS were 2.85 and 1.81 min, respectively.
A simple protein precipitation method was followed for extraction of 4k from mice plasma. To an aliquot of 50 μL of plasma or tissue (brain, liver, or kidney) samples, IS solution (5 μL of 20 ng/mL) was added and mixed for 15 s on a cyclomixer (Thermo Scientific, Indianapolis, IN, USA). After precipitation with 200 μL of acetonitrile, the mixture was vortexed for 2 min, followed by centrifugation for 10 min at 14,000 rpm on an accuSpin Micro 17R (Fisher Scientific, Suwanee, GA, USA) at 5 °C. An aliquot of ~150 μL of clear supernatant was transferred into vials and 2 μL was injected onto LC-MS/MS system for analysis.
Male CD-1 mice (N = 48) were obtained from Envigo (St. Louis, MO, USA) and maintained on a 12:12 h reversed dark/light cycle (lights off at 07:00 h) with ad libitum access to food and water. Following a ~4 h fast, animals were randomly assigned to one of two groups. Group I and II animals (n = 24/group, weight range 25–30 g) received compound 4k (5 mg/kg) orally (in the form of a solution, prepared using 10% absolute alcohol, 10% cremophor, and 80% Milli-Q water) or intravenously (i.v., using solution formulation comprising 10% absolute alcohol, 10% cremophor, and 80% normal saline), respectively. At 0.5, 1, 2, 4, 8, and 24 h post administration, animals were euthanized, blood was collected in K2. EDTA-containing polypropylene tubes and, tissues were collected (brain, liver, and kidney). Plasma was harvested by centrifuging the blood using Eppendorf 5430R Centrifuge (Germany) at 5000 rpm for 5 min and stored frozen at −80 °C until analysis.
Brain, liver, and kidney tissues were homogenized in separate 15 mL round-bottom screw-capped vials in phosphate buffered saline (5 volumes of each tissue mass) with a homogenizer (Polytron®) and stored at −80 °C until analysis. Plasma or tissue homogenates (50 μL) were spiked with IS and processed as mentioned in sample preparation section.
Plasma and tissue concentration and time data of compound 4k were analyzed by a non-compartmental method using WinNonlin Version 5.3 (Pharsight Corporation, Mountain View, CA, USA).

human CB2 receptors = target: T1, human CB2 receptors (Homo sapiens, UniProt P34972); assay: Cannabinoid receptor [3H]CP-55,940 displacement binding assay, CB2
T1 construct: expressed in transfected cells; host or cells: CHO cells
Method: (§1) The affinities of the compounds for CB1 and CB2 receptors were examined using displacement assays, as previously described. Briefly, cell membranes from CHO cells expressing human CB1 or human CB2 receptors were isolated using differential centrifugation. Test compounds reconstituted in DMSO and were incubated with the isolated membrane in binding buffer (50 mM Tris-HCl, 1 mM EDTA, 3 mM MgCl2, 5 mg/mL BSA, pH 7.4) along with 2.5 nM [^3H]CP-55,940. Total binding was assessed in the presence of equal concentration of DMSO, while non-specific binding was determined in the presence of 10 μM CP-55,940, and background binding was determined in wells lacking membrane. Following incubation at 30 °C for 60 min, the binding reactions were terminated by vacuum filtration through Whatman GF/C filters. The filters were then washed twice with ice-cold buffer (50 mM Tris-HCl, 1 mg/mL BSA). Liquid scintillation cocktail was added to each well and the total tritiated counts per minute were analyzed using a TopCount scintillation counter. Background counts were subtracted from all wells and the percent displacement from total binding was calculated.
(§2) The compounds were initially screened at 10 μM concentrations. If they produced at least ±30% displacement of the radioligand, then full competition curves were constructed. Ki values were calculated using GraphPad Prism (San Diego, CA, USA) and Kd values determined using a 1 site fit. All assays were run in technical and biological replicates so that the n = 5–6.

human CB1 receptors = target: T2, human CB1 receptors (Homo sapiens, UniProt P21554); assay: Cannabinoid receptor [3H]CP-55,940 displacement binding assay, CB1; conditions: 1 h; 10 µM compound; CHO cell membranes, 2.5 nM radioligand; read-out: Displacement of [3H]CP-55,940 from CB1
T2 construct: expressed in transfected cells; host or cells: CHO cells
Method: as §1, §2

[2] = male, CD-1, mouse, intravenous 5 mg/kg, plasma
[3] = male, CD-1, mouse, oral 5 mg/kg, plasma

T1 sequence (P34972 whole entry): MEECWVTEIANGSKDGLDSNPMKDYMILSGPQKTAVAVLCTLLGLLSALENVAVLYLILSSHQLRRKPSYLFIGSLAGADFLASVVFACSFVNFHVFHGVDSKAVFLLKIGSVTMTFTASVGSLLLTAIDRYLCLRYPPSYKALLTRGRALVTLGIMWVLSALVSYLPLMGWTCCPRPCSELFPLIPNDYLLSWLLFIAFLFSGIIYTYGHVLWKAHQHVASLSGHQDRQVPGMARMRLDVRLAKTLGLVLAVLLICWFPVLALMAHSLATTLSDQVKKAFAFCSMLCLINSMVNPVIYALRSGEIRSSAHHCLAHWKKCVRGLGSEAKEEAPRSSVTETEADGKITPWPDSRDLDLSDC
T2 sequence (P21554 whole entry): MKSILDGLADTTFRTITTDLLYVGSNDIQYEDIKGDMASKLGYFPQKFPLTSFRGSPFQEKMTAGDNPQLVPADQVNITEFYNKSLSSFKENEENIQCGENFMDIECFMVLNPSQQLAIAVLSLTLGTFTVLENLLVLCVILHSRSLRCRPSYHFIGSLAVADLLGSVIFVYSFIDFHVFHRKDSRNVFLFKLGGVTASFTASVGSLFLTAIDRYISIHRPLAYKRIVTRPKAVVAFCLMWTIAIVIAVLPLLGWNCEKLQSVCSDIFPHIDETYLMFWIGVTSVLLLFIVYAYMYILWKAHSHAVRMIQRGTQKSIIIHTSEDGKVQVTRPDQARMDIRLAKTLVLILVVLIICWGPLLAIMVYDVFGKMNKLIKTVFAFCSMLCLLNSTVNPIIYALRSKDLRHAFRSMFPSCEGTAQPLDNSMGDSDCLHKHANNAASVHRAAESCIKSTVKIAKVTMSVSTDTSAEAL

In the case of `O=C1c2ccc(Cl)cc2N/C(=N/N=C/c2cc3ccccc3s2)[C@@H]2CCCN12` [Compound 4k], the “AUC0–∞” value ([1]; intravenous 5 mg/kg, brain) is reported as 5685 ng·h/g, the t1/2 ([1]; intravenous 5 mg/kg, brain, 5 mg/kg) is reported as 6.54 h and the “AUC0–∞” value ([1]; intravenous 5 mg/kg, kidney) is reported as 13272 ng·h/g. For the same molecule, the “AUC0–∞” value ([1]; intravenous 5 mg/kg, liver) was 19991 ng·h/g, the t1/2 ([1]; intravenous 5 mg/kg, liver, 5 mg/kg) was 9.26 h and the “clearance as share of hepatic blood flow in mice” value ([1]; intravenous 5 mg/kg, plasma) was 26%. The t1/2 ([1]; intravenous 5 mg/kg, plasma, 5 mg/kg) was 6.91 h, the Kp ([1]; male, CD-1, mouse, brain and plasma, intravenous 5 mg/kg, read-out: mean brain to plasma ratio) was 3.67 and the Kp ([1]; male, CD-1, mouse, brain and plasma, oral 5 mg/kg, read-out: mean brain to plasma ratio) was 4.61. For the same molecule, the half-life ([1]; male, CD-1, mouse, brain, iv, 5 mg/kg, intravenous 5 mg/kg, brain, read-out: t1/2 (converted)) was 6.5 h, the half-life ([1]; male, CD-1, mouse, brain, po, 5 mg/kg, oral 5 mg/kg, brain, read-out: t1/2 (converted)) was 22.9 h and the Kp ([1]; male, CD-1, mouse, kidney and plasma, intravenous 5 mg/kg, read-out: mean kidney to plasma ratio) was 14.5. It also gave a Kp ([1]; male, CD-1, mouse, kidney and plasma, oral 5 mg/kg, read-out: mean kidney to plasma ratio) of 7.25, a half-life ([1]; male, CD-1, mouse, kidney, iv, 5 mg/kg, intravenous 5 mg/kg, kidney, read-out: t1/2 (converted)) of 10.2 h and a half-life ([1]; male, CD-1, mouse, kidney, po, 5 mg/kg, oral 5 mg/kg, kidney, read-out: t1/2 (converted)) of 16.7 h. For the same molecule, the Kp ([1]; male, CD-1, mouse, liver and plasma, intravenous 5 mg/kg, read-out: mean liver to plasma ratio) was 11.5, the Kp ([1]; male, CD-1, mouse, liver and plasma, oral 5 mg/kg, read-out: mean liver to plasma ratio) was 9.89 and the half-life ([1]; male, CD-1, mouse, liver, iv, 5 mg/kg, intravenous 5 mg/kg, liver, read-out: t1/2 (converted)) was 9.3 h. The half-life ([1]; male, CD-1, mouse, liver, kidney, other: oral or intravenous, 5 mg/kg, oral or intravenous route, liver and kidneys, read-out: elimination half-lives in the liver and kidneys) was 9.3 to 16.7 h, the half-life ([1]; male, CD-1, mouse, liver, po, 5 mg/kg, oral 5 mg/kg, liver, read-out: t1/2 (converted)) was 13 h and the half-life ([1]; male, CD-1, mouse, plasma, iv, 5 mg/kg, intravenous 5 mg/kg, plasma, read-out: t1/2 (converted)) was 6.9 h. The half-life ([1]; male, CD-1, mouse, plasma, po, 5 mg/kg, oral 5 mg/kg, plasma, read-out: t1/2 (converted)) was 16.4 h, the Cmax ([1]; male, CD-1, mouse, intravenous 5 mg/kg, brain, read-out: Cmax or C0) was 2260 ng/g and the Vd ([1]; male, CD-1, mouse, intravenous 5 mg/kg, brain, read-out: volume of distribution) was 8.82 ± 2.43 L/kg. It also gave a Cmax ([1]; male, CD-1, mouse, intravenous 5 mg/kg, kidney, read-out: Cmax or C0) of 4720 ng/g, a Vd ([1]; male, CD-1, mouse, intravenous 5 mg/kg, kidney, read-out: volume of distribution) of 5.63 ± 0.37 L/kg and a Cmax ([1]; male, CD-1, mouse, intravenous 5 mg/kg, liver, read-out: Cmax or C0) of 13500 ng/g. For the same molecule, the Vd ([1]; male, CD-1, mouse, intravenous 5 mg/kg, liver, read-out: volume of distribution) was 3.38 ± 0.18 L/kg, the AUC(0-inf) [1, 2] was 4020 ng·h/mL and the clearance [1, 2] was 23.5 mL/min/kg. The C0 ([1]; male, CD-1, mouse, intravenous 5 mg/kg, plasma, read-out: Cmax or C0) was 4340 ng/mL, the Vd ([1]; male, CD-1, mouse, intravenous 5 mg/kg, plasma, read-out: Vd) was 14.3 L/kg and the Tmax ([1]; male, CD-1, mouse, oral 5 mg/kg, brain) was 1.25 h. It also gave a Cmax ([1]; male, CD-1, mouse, oral 5 mg/kg, brain, read-out: Cmax) of 602 ng/g, a Tmax ([1]; male, CD-1, mouse, oral 5 mg/kg, kidney) of 0.75 h and a Cmax ([1]; male, CD-1, mouse, oral 5 mg/kg, kidney, read-out: Cmax) of 795 ng/g. For the same molecule, the Tmax ([1]; male, CD-1, mouse, oral 5 mg/kg, liver) was 0.75 h, the Cmax ([1]; male, CD-1, mouse, oral 5 mg/kg, liver, read-out: Cmax) was 1890 ng/g and the AUC(0-inf) [1, 3] was 739 ng·h/mL. For the same molecule, the Tmax [1, 3] was 0.88 h, the Cmax ([1]; male, CD-1, mouse, oral 5 mg/kg, plasma, read-out: Cmax) was 198 ng/mL and the bioavailability ([1]; male, CD-1, mouse, brain, read-out: F (apparent oral bioavailability)) was 42.5 ± 5.75%. The bioavailability ([1]; male, CD-1, mouse, plasma, read-out: F (oral bioavailability)) was 18%, the “AUC0–∞” value ([1]; oral 5 mg/kg, brain, 5 mg/kg) was 3069 ± 64 ng·h/g and 3069 ng·h/g and the “AUC0–∞” value ([1]; oral 5 mg/kg, kidney, 5 mg/kg) was 5223 ± 44.75 ng·h/g and 5223 ng·h/g. The “AUC0–∞” value ([1]; oral 5 mg/kg, liver, 5 mg/kg) was 6423 ± 571 ng·h/g and 6423 ng·h/g, the inhibition at 10 µM (human CB2 receptors; 1 h, 10 µM compound, CHO cell membranes, 2.5 nM radioligand, read-out: Displacement of [3H]CP-55,940 from CB2) was 84.6% and the Ki (human CB2 receptors; CB2, full competition curves vs [3H]CP-55,940) was 146 nM. It also gave an inhibition at 10 µM (human CB1 receptors) of 41.3%.
